Results from patent publication US7163923B2, “Peptide deformylase activated prodrugs” (Celmed Oncology (USA), Inc., priority 2001, dated 2007).
Like-named read-outs stand apart in the source and are kept apart here.

System: E. coli
Test: MIC susceptibility testing (modified NCCLS, 384-well)
Assay type: cell-based
Method: The NCCLS (National Committee for Clinical Laboratory Standards), method to determine MIC's of antimicrobial compounds is modified for high-throughput screening. All stocks of tested compounds are prepared in either water or in DMSO depending on solubility. At the highest concentration, DMSO content should not exceed 0.5%. Briefly, twenty 2-fold serial dilutions of test compounds from the highest concentration are made in a 384-well microtiter plate. Each well is inoculated with testing bacteria in broth to a final concentration of approximately 1–1.5×10^6 cells/ml. Bacterial growth is determined by the increase of optical density at 600 nm using a microplate reader (Tecan SpectraFluor Plus). The MIC is defined as the lowest concentration at which bacterial growth (equivalent to visible growth) was inhibited after 16 to 18 hours of incubation at the appropriate temperature required for the bacteria growth.
E. coli/TEM—E. coli expressing TEM-1 beta-lactamase; MRSA—Methicillin Resistant S. Aureus; MSSA—Methicillin Sensitive S. Aureus

Measured: MIC

CSCCC(NC=O)C(=O)NC(CC(C)C)C(=O)Oc1cc(Cl)ccc1Oc1ccc(Cl)cc1Cl (stereo not shown) [NB2046, 2-(2-formylamino-4-methylsulfanyl-butyrylamino)-4-methyl-pentanoic acid 5-chloro-2-(2,4-dichloro-phenoxy)-phenyl ester]
16 µg/mL: E. coli, Exp. #2, Table 4 | E. coli/Tem-1 (expressing TEM-1 beta-lactamase), Exp. #1, Table 4 | E. coli/Tem-1 (expressing TEM-1 beta-lactamase), Exp. #2, Table 4 | Escherichia coli, E. coli, Exp. #1, Table 4, read-out: MIC
